Measurements: US10532999B2 (priority 2012, dated 2020)
Where “and” joins values, the source holds several entries; their conditions need not be identical. Equal entries are not always repeated. Where two headings read alike, the source gives them in different places.

How the values were obtained:
[1] = Chemical stability of ML336 with or without dithiothreitol (DTT), LCMS; settings: for Averaged Percent ML336 Remaining after 8 h / Percent ML336 Remaining after 8 h: 10 μM in PBS pH 7.4 (1% DMSO), room temperature; for Percent ML336 Remaining after 8 h: single runs
[2] = tested on: VEEV; settings: read-out: Reported VEEV CPE inhibition; cited from earlier work
[3] = tested on: VEEV TC-83; assay: microbe, parasite or virus in culture; type: cell-based; settings: Venezuelan equine encephalitis virus, Vero 76, read-out: Assay provided VEEV CPE inhibition
[4] = tested on: CYP450 (2C9, 2C19); settings: noted liability, Table 2, cited from earlier work
[5] = ML336 without nucleophile (control)

CN1CCN(C)/C(=N/c2ccc([N+](=O)[O-])cc2C(=O)Nc2ccccc2)C1 [ML336, (E)-2-((1,4-dimethylpiperazin-2-ylidene)amino)-5-nitro-N-phenylbenzamide]
adducts detected by LCMS ([1]; 50 μM DTT, sampled every hour for eight hours): no adducts were detected | Averaged Percent ML336 Remaining after 8 h ([1]; ML336 with 5X DTT (50 μM)): 98.96% | Percent ML336 Remaining after 8 h ([1]; ML336 with 5X DTT (50 μM)): 100.36% and 97.55% | Averaged Percent ML336 Remaining after 8 h [1, 5]: 93.92% | Percent ML336 Remaining after 8 h [1, 5]: 96.13% and 91.70%

COc1cc(NC(=O)Nc2cccc(CNC(=O)O[C@H]3CCOC3)c2)ccc1-c1cnco1 [VX-497]
IC50 [2]: 19.2 µM

Cc1cc(Cc2cc(C)cc(C(C)(C)C)c2O)c(O)c(Cc2cc(C)cc(C(C)(C)C)c2O)c1 [antioxidant 80]
IC50 [3]: > 50 µM | CYP450 (2C9, 2C19) inhibition [4]: ~3 µM | CYP450 (2C9, 2C19) inhibition ([4]; listed as Antioxidant 80): about 3 μM

O=C(O)Cc1ccccc1Nc1c(Cl)cccc1Cl [diclofenac sodium]
IC50 [3]: > 50 µM

NS(=O)(=O)c1ccc(-n2c(-c3ccccc3)nc3ccc(Br)cc3c2=O)cc1 [quinazolinone]
IC50 [3]: > 25 µM

NC(=O)c1ncn([C@@H]2O[C@H](CO)[C@@H](O)[C@H]2O)n1 [ribavirin]
IC50 [3]: 126 µM
